Data from patent US20210278408A1, “METHODS OF TREATMENT OF CANCER WITH SUBSTITUTED PYRROLE AND PYRAZOLE COMPOUNDS AND DIAGNOSIS OF CANCERS SUSCEPTIBLE TO TREATMENT WITH SUBSTITUTED PYRROLE AND PYRAZOLE COMPOUNDS” (Bantam Pharmaceutical, LLC, priority 2018, published 2021).
Structures can show the parent of a compound that is named as a salt.

Tested on: BJAB (malignant human B-cell-line)
Assay: BJAB cell proliferation
Assay type: cell-based
Settings: BJAB (malignant human B-cell-line) cell proliferation, EC50; read-out: BJAB
Source text: In certain embodiments, the therapeutic compound is one of the compounds of the compound table below. […] In certain embodiments, the therapeutic compound is a compound having an activity as “A,” “B” or “C” in the table below. In certain embodiments, the therapeutic compound is a compound having an activity as “A” or “B” in the table below. In certain embodiments, the therapeutic compound is a compound having an activity as “A” in the table below.
In certain embodiments, the therapeutic compound is one of the compounds of the compound table below, optionally provided as a pharmaceutically-acceptable salt or N-oxide, and/or a solvate or hydrate. […] In certain embodiments, the therapeutic compound is a compound having an activity as “A,” “B” or “C” in the table below. In certain embodiments, the therapeutic compound is a compound having an activity as “A” or “B” in the table below. In certain embodiments, the therapeutic compound is a compound having an activity as “A” in the table below.

CCN1CCN(c2nc(-n3nc(C)c(-c4cccc(F)c4)c3C(=O)O)sc2SC(C)C)CC1 [Compound B26, 1-(4-(4-ethylpiperazin-1-yl)-5-(isopropylthio)thiazol-2-yl)-4-(3-fluorophenyl)-3-methyl-1H-pyrazole-5-carboxylic acid]
EC50: > 20 µM

CC(=O)N1CCN(c2nc(-n3nc(C)c(-c4cccc(F)c4)c3C(=O)O)sc2SC(C)C)CC1 [Compound B27, 1-(4-(4-acetylpiperazin-1-yl)-5-(isopropylthio)thiazol-2-yl)-4-(3-fluorophenyl)-3-methyl-1H-pyrazole-5-carboxylic acid]
EC50: > 20 µM

Cc1nn(-c2nc(N3CCC(C)CC3)c(SC(C)C)s2)c(C(=O)O)c1-c1cccc(F)c1 [Compound B28, 4-(3-fluorophenyl)-1-(5-(isopropylthio)-4-(4-methylpiperidin-1-yl)thiazol-2-yl)-3-methyl-1H-pyrazole-5-carboxylic acid]
EC50: 1 to 5 µM

Cc1nn(-c2nnc(-c3ccc(C(F)(F)F)cc3)s2)c(C(=O)O)c1-c1cccc(F)c1 [Compound B30, 4-(3-fluorophenyl)-3-methyl-1-(5-(4-(trifluoromethyl)phenyl)-1,3,4-thiadiazol-2-yl)-1H-pyrazole-5-carboxylic acid]
EC50: > 20 µM

COCCN(C)c1sc(-n2nc(C)c(-c3cccc(F)c3)c2C(=O)O)nc1-c1ccc(C(F)(F)F)cc1 [Compound B31, 4-(3-fluorophenyl)-1-(5-((2-methoxyethyl)(methyl)amino)-4-(4-(trifluoromethyl)phenyl)thiazol-2-yl)-3-methyl-1H-pyrazole-5-carboxylic acid]
EC50: 1 to 5 µM

Cc1nn(-c2nc(N3CCC(C)(C)CC3)c(SC(C)C)s2)c(C(=O)O)c1-c1cccc(F)c1 [Compound B32, 1-(4-(4,4-dimethylpiperidin-1-yl)-5-(isopropylthio)thiazol-2-yl)-4-(3-fluorophenyl)-3-methyl-1H-pyrazole-5-carboxylic acid]
EC50: < 1 µM

Cc1nn(-c2nc(N3CCN(C(=O)OC(C)(C)C)CC3)c(SC(C)C)s2)c(C(=O)O)c1-c1cccc(F)c1 [Compound B33, 1-(4-(4-(tert-butoxycarbonyl)piperazin-1-yl)-5-(isopropylthio)thiazol-2-yl)-4-(3-fluorophenyl)-3-methyl-1H-pyrazole-5-carboxylic acid]
EC50: > 20 µM

Cc1nn(-c2nc(N3CCC(C(F)(F)F)C3)c(SC(C)C)s2)c(C(=O)O)c1-c1cccc(F)c1 (stereo not shown) [Compound B34, 4-(3-fluorophenyl)-1-(5-(isopropylthio)-4-(3-(trifluoromethyl)pyrrolidin-1-yl)thiazol-2-yl)-3-methyl-1H-pyrazole-5-carboxylic acid]
EC50: 1 to 5 µM

Cc1nn(-c2nc(N3CCNCC3)c(SC(C)C)s2)c(C(=O)O)c1-c1cccc(F)c1 [Compound B35, 4-(3-fluorophenyl)-1-(5-(isopropylthio)-4-(piperazin-1-yl)thiazol-2-yl)-3-methyl-1H-pyrazole-5-carboxylic acid hydrochloric acid salt]
EC50: > 20 µM

CC(C)=Cc1sc(-n2nc(C)c(-c3cccc(F)c3)c2C(=O)O)nc1-c1ccc(C(F)(F)F)cc1 [Compound B36, 4-(3-fluorophenyl)-3-methyl-1-(5-(2-methylprop-1-en-1-yl)-4-(4-(trifluoromethyl)phenyl)thiazol-2-yl)-1H-pyrazole-5-carboxylic acid]
EC50: < 1 µM

CC(C)=Cc1nc(-n2nc(C)c(-c3cccc(F)c3)c2C(=O)O)sc1-c1ccc(C(F)(F)F)cc1 [Compound B37, 4-(3-fluorophenyl)-3-methyl-1-(4-(2-methylprop-1-en-1-yl)-5-(4-(trifluoromethyl)phenyl)thiazol-2-yl)-1H-pyrazole-5-carboxylic acid]
EC50: 10 to 25 µM

Cc1nn(-c2nc(-c3ccc(C(F)(F)F)cc3)c(-c3ccc(C(F)(F)F)cc3)s2)c(C(=O)O)c1-c1cccc(F)c1 [Compound B38, 1-(4,5-bis(4-(trifluoromethyl)phenyl)thiazol-2-yl)-4-(3-fluorophenyl)-3-methyl-1H-pyrazole-5-carboxylic acid]
EC50: < 1 µM

Cc1nn(-c2nc(-c3ccc(C(F)(F)F)cc3)c(-c3ccc(C(F)(F)F)cc3)s2)cc1-c1cccc(F)c1 [Compound B39, 2-(4-(3-fluorophenyl)-3-methyl-1H-pyrazol-1-yl)-4,5-bis(4-(trifluoromethyl)phenyl)thiazole]
EC50: > 20 µM

Cc1nn(-c2nc(N3CCC(C(C)(C)C)CC3)c(SC(C)C)s2)c(C(=O)O)c1-c1cccc(F)c1 [Compound B40, 1-(4-(4-(tert-butyl)piperidin-1-yl)-5-(isopropylthio)thiazol-2-yl)-4-(3-fluorophenyl)-3-methyl-1H-pyrazole-5-carboxylic acid]
EC50: < 1 µM

Cc1nn(-c2nc(N3CCC4(CC3)CC4)c(SC(C)C)s2)c(C(=O)O)c1-c1cccc(F)c1 [Compound B41, 4-(3-fluorophenyl)-1-(5-(isopropylthio)-4-(6-azaspiro[2.5]octan-6-yl)thiazol-2-yl)-3-methyl-1H-pyrazole-5-carboxylic acid]
EC50: 1 to 5 µM

COC1(C(F)(F)F)CCN(c2nc(-n3nc(C)c(-c4cccc(F)c4)c3C(=O)O)sc2SC(C)C)CC1 [Compound B42, 4-(3-fluorophenyl)-1-(5-(isopropylthio)-4-(4-methoxy-4-(trifluoromethyl)piperidin-1-yl)thiazol-2-yl)-3-methyl-1H-pyrazole-5-carboxylic acid]
EC50: < 1 µM

COc1ccc(-c2nc(-n3nc(C)c(-c4cccc(F)c4)c3C(=O)O)sc2-c2ccc(C(F)(F)F)cc2)cc1 [Compound B43, 4-(3-fluorophenyl)-1-(4-(4-methoxyphenyl)-5-(4-(trifluoromethyl)phenyl)thiazol-2-yl)-3-methyl-1H-pyrazole-5-carboxylic acid]
EC50: 1 to 5 µM

COc1ccc(-c2nc(-n3nc(C)c(-c4cccc(F)c4)c3C(=O)O)sc2-c2ccc(OC)cc2)cc1 [Compound B44, 1-(4,5-bis(4-methoxyphenyl)thiazol-2-yl)-4-(3-fluorophenyl)-3-methyl-1H-pyrazole-5-carboxylic acid]
EC50: 10 to 25 µM

COc1ccc(-c2sc(-n3nc(C)c(-c4cccc(F)c4)c3C(=O)O)nc2-c2ccc(C(F)(F)F)cc2)cc1 [Compound B45, 4-(3-fluorophenyl)-1-(5-(4-methoxyphenyl)-4-(4-(trifluoromethyl)phenyl)thiazol-2-yl)-3-methyl-1H-pyrazole-5-carboxylic acid]
EC50: < 1 µM

Cc1nn(-c2nc(N3CCN(C(C)(C)C)C(=O)C3)c(SC(C)C)s2)c(C(=O)O)c1-c1cccc(F)c1 [Compound B46, 1-(4-(4-(tert-butyl)-3-oxopiperazin-1-yl)-5-(isopropylthio)thiazol-2-yl)-4-(3-fluorophenyl)-3-methyl-1H-pyrazole-5-carboxylic acid]
EC50: > 20 µM

CNC(=O)CCc1sc(-n2nc(C)c(-c3cccc(F)c3)c2C(=O)O)nc1-c1ccc(C(F)(F)F)cc1 [Compound B47, 4-(3-fluorophenyl)-3-methyl-1-(5-(3-(methylamino)-3-oxopropyl)-4-(4-(trifluoromethyl)phenyl)thiazol-2-yl)-1H-pyrazole-5-carboxylic acid]
EC50: > 20 µM

COCCOC1(C(F)(F)F)CCN(c2nc(-n3nc(C)c(-c4cccc(F)c4)c3C(=O)O)sc2SC(C)C)CC1 [Compound B48, 4-(3-fluorophenyl)-1-(5-(isopropylthio)-4-(4-(2-methoxyethoxy)-4-(trifluoromethyl)piperidin-1-yl)thiazol-2-yl)-3-methyl-1H-pyrazole-5-carboxylic acid]
EC50: 1 to 5 µM
